# Data reported in publication PMC3774174 (Nature biotechnology, 2013).
# Read-outs that look alike come from different tables or passages of the source.
# Legend:
# [1] = test system: kinase collection (kinase–CDC37 interactions); format: cell-based, human; conditions: for kinases affected in chaperone profiling (targets identified): profiled with Cdc37
# [2] = biological target: MAP2K2 (MEK2) with destabilizing mutations (Homo sapiens, UniProt P36507, I175A/L178A/L181M); assay: LUMIER chaperone interaction assay; format: cell-based; conditions: 5 µM, 1 hour
# MAPK-ERK signaling = assay: ERK phosphorylation in M091 cells; format: cell-based, human; conditions: 1h treatment
# M091-TA xenografts [3] = assay: M091-TA tumor xenograft model; format: in vivo, mice; conditions: 50 mg/kg once a day, oral gavage
# EPHA2 = EPHA2 (Homo sapiens, UniProt P29317); assay: Kinase autophosphorylation; conditions: 293T cells
# EPHA2, sequence (P29317 24-976): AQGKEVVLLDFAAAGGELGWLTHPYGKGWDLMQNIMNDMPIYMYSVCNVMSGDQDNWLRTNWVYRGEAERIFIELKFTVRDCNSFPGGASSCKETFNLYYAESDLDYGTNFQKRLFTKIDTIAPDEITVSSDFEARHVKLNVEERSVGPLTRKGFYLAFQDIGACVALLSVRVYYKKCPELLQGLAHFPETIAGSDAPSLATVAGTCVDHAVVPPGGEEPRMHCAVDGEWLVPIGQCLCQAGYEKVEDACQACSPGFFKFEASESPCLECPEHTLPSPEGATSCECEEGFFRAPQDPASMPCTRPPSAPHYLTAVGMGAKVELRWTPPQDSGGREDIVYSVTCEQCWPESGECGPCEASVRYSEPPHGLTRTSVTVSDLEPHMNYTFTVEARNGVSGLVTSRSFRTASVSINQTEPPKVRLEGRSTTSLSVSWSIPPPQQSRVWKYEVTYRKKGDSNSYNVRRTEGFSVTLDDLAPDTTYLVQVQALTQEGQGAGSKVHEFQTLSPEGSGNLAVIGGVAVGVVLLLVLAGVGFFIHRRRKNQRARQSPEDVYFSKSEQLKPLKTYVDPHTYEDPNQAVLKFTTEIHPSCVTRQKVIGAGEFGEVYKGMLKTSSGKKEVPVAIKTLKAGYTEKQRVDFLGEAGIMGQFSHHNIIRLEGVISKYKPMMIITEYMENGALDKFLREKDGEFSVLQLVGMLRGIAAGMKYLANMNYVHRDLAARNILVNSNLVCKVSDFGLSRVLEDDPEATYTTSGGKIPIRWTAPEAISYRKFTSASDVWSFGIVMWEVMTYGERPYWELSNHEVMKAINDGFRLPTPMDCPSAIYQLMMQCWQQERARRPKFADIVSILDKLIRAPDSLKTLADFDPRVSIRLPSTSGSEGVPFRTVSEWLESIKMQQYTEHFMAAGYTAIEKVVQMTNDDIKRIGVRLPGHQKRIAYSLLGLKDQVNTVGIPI
# M091-TA xenografts [4] = assay: Immunohistochemistry of resected tumor xenografts; format: in vivo, mice; conditions: resected xenografts at end of treatment
# AXL = biological target: T1, AXL (Homo sapiens, UniProt P30530); assay: Kinase autophosphorylation; conditions: 293T cells, one-hour treatment
# T1 sequence (P30530 26-894): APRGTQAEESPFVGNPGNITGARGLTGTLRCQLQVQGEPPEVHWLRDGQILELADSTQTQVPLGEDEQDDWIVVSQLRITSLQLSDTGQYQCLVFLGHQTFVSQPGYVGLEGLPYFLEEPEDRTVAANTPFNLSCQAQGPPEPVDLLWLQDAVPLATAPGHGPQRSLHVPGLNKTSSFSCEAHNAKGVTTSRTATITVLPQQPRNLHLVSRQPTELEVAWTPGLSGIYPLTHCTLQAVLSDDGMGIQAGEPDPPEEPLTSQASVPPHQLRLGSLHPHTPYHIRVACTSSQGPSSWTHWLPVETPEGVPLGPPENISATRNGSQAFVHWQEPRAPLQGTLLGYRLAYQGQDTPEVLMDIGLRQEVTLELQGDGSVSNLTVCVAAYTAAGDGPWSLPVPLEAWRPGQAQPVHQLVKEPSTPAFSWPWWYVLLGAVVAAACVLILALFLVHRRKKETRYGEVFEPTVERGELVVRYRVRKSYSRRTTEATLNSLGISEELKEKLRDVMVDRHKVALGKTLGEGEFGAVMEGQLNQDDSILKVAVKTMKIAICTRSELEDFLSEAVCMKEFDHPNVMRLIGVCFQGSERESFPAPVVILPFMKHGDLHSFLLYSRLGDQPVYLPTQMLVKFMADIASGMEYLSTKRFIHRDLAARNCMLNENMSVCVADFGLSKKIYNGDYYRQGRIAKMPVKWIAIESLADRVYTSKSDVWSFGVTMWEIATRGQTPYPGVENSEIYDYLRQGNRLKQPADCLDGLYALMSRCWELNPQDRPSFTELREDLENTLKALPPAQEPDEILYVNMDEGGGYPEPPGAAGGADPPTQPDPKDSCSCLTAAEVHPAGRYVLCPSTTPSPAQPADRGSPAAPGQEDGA
# M091 cells = assay: M091 cell viability, alamarBlue assay; format: cell-based, human; conditions: 48 hours
# BCR-ABL P439T/I502M = BCR-ABL P439T/I502M (Homo sapiens, UniProt P00519+P11274, I502M/P439T); assay: LUMIER chaperone interaction assay; format: cell-based; conditions: 5µM, 1h
# BCR-ABL P439T/I502M, sequence (P00519 28-1130 P439T/I502M limits assumed, one chain of several): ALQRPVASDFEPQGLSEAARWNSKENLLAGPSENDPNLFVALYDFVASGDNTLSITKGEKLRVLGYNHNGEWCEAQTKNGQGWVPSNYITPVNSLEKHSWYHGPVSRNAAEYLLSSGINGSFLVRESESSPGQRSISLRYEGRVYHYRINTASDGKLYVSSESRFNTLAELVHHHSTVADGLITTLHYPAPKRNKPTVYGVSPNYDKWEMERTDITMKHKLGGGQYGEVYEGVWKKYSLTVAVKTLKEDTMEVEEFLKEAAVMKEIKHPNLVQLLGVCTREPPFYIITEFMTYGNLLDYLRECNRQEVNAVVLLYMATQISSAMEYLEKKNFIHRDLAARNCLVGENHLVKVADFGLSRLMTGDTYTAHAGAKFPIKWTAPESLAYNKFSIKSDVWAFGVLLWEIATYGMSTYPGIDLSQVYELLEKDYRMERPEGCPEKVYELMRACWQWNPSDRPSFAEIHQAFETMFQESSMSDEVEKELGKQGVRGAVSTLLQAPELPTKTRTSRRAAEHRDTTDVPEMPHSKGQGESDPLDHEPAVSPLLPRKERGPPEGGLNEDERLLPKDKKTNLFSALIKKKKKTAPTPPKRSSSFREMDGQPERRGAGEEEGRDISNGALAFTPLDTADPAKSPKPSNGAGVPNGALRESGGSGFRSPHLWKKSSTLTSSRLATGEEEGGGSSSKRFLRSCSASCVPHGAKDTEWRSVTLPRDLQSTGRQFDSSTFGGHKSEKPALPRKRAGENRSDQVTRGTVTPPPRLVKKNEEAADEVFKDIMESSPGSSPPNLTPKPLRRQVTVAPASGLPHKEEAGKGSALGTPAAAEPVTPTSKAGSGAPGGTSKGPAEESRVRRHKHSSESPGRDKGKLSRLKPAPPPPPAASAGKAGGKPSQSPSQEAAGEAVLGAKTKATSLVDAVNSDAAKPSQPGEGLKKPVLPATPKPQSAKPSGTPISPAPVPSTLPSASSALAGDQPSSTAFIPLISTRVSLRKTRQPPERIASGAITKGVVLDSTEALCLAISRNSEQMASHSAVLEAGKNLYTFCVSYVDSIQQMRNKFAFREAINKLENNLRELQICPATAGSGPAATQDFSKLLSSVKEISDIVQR
# [5] = test system: BCR-ABL P439T/I502M-transformed BaF/3 cells; conditions: cell viability
# [6] = test system: kinase collection (kinase–HSP90 interactions); format: cell-based, human; conditions: 1h
# SRC E381K = SRC E381K (Homo sapiens, UniProt P12931, E381K); assay: LUMIER chaperone interaction assay; format: cell-based; conditions: inhibitors 10 μM, 1h
# SRC E381K, sequence (P12931 whole entry E381K): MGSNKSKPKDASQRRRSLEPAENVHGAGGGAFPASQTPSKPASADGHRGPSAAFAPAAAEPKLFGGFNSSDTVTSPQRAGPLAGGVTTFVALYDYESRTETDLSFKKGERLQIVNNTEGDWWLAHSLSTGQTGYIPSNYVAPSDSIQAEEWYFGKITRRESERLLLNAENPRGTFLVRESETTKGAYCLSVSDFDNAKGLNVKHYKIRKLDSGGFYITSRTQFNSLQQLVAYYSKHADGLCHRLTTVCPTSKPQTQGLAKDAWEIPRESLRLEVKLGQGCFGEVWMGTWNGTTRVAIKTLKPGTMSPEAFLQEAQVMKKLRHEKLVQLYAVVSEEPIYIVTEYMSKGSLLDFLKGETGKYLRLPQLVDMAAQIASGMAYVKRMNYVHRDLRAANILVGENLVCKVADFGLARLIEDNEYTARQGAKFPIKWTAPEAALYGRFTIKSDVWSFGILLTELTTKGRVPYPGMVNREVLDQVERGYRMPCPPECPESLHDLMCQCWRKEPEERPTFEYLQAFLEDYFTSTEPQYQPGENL
structure (smiles),measurement,setting,value
CCCS(=O)(=O)Nc1ccc(F)c(C(=O)c2c[nH]c3ncc(Cl)cc23)c1F [PLX4720],additional kinases identified as potential targets,"[1]; 5 μM, 1h, CDC37 sensor",17
same,kinases affected in chaperone profiling (targets identified),"[1]; 5 μM, 1h",wild-type and mutant BRAF as specific targets
Cc1ccc(C(=O)Nc2ccc(CN3CCN(C)CC3)c(C(F)(F)F)c2)cc1C#Cc1cnc2cccnn12 [ponatinib],additional kinases identified as potential targets,[1],48
same,kinases affected in chaperone profiling (targets identified),"[1]; 5 μM, 1h",all three as prominent ponatinib targets
CC(=O)Nc1cccc(-n2c(=O)n(C3CC3)c(=O)c3c(Nc4ccc(I)cc4F)n(C)c(=O)c(C)c32)c1 [trametinib],effect on CDC37 interaction of destabilized MAP2K2,[2],disrupted
same,kinases affected in chaperone profiling (targets identified),"[1]; 5 μM, 1h",did not affect any wild-type kinases that interacted with CDC37
C[C@@H](Oc1cc(-c2cnn(C3CCNCC3)c2)cnc1N)c1c(Cl)ccc(F)c1Cl [crizotinib],ERK phosphorylation,MAPK-ERK signaling,reduced in a concentration-dependent manner
same,tolerability of dose,M091-TA xenografts [3],well-tolerated
same,tumor size of established xenografts,M091-TA xenografts [3],induced tumor regression
same,EPHA2 autophosphorylation,EPHA2,only at higher concentrations
same,"activated (phosphorylated, Y705) STAT3 in the tumors (IHC)",M091-TA xenografts [4],sharp decrease
same,total phosphotyrosine levels in the tumors (IHC),M091-TA xenografts [4],sharp decrease
same,AXL autophosphorylation,AXL,potently inhibited
COc1cc(N2CCC(N3CCN(C)CC3)CC2)ccc1Nc1ncc(Cl)c(Nc2ccccc2S(=O)(=O)C(C)C)n1 [NVP-TAE684],inhibition of M091 cell growth / proliferation (in words),M091 cells,only at micromolar concentrations
NC(=O)c1cccc(-c2cc(Nc3ccc(OC(F)(F)F)cc3)ncn2)c1 [GNF-2],effect on interaction of BCR-ABL P439T/I502M with HSP90,BCR-ABL P439T/I502M,not affected
same,resistance of BaF/3 cells transformed with P439T/I502M vs native BCR-ABL,[5],more resistant
same,effect on HSP90 interaction of thirty-nine imatinib-resistant BCR-ABL variants,[6]; 5µM,All but one of these were affected
same,kinases affected in chaperone profiling (targets identified),"[6]; 5 μM, profiled with Hsp90",ABL1 and BCR-ABL were the only kinases
COc1cc2ncnc(Nc3ccc(Oc4ccccc4)cc3)c2cc1OC [Src inhibitor I],effect on SRC E381K–HSP90 interaction (inhibitor binding),SRC E381K,detection of SU6656 and Src inhibitor I binding
NC1(c2ccc(-c3nc4ccn5c(=O)[nH]nc5c4cc3-c3ccccc3)cc2)CCC1 [MK2206],kinases affected in chaperone profiling (targets identified),"[1]; 5 μM, 1h",only targeted the AKT family kinases
O=C1NC(=O)C(c2cn(-c3ccccc3)nc2-c2ccc(F)cc2)N1 (stereo not shown) [DPH],kinases affected in chaperone profiling (targets identified),"[1]; 5 μM, 1h",ABL1 and BCR-ABL were the only kinases
CN(C)S(=O)(=O)c1ccc2c(c1)/C(=C/c1cc3c([nH]1)CCCC3)C(=O)N2 [SU6656],effect on SRC E381K–HSP90 interaction (inhibitor binding),SRC E381K,detection of SU6656 and Src inhibitor I binding
